Source: patent US8044071B2, “Method for reducing side effects of CB2 receptor agonist therapy using a combination of a selective CB2 receptor agonist and a selective CB1 receptor antagonist” (Abbott Laboratories, priority 2007, dated 2011)
Where two headings read alike, the source gives them in different places.

What was measured:
human CB2 receptors = target: T1, human CB2 receptors (Homo sapiens, UniProt P34972); experiment: CB2 radioligand binding assay ([3H]CP-55,940 competition)
T1 construct: expressed in transfected cells
Procedure: (§1) To determine the selectivity (Ki) of the compounds of the present application for CB2 receptors relative to CB1 receptors, radioligand binding assays are performed, which are described herein.
For CB2 radioligand binding assays, HEK293 cells stably expressing human CB2 receptors were grown until a confluent monolayer was formed. Briefly, the cells were harvested and homogenized in TE buffer (50 mM Tris-HCl, 1 mM MgCl2, and 1 mM EDTA) using a polytron for 2×10 second bursts in the presence of protease inhibitors, followed by centrifugation at 45,000×g for 20 minutes. The final membrane pellet was re-homogenized in storage buffer (50 mM Tris-HCl, 1 mM MgCl2, and 1 mM EDTA and 10% sucrose) and frozen at −78° C. until used. Saturation binding reactions were initiated by the addition of membrane preparation (protein concentration of 5 μg/well for human CB2) into wells of a deep well plate containing [^3H]CP-55,940 (120 Ci/mmol, a nonselective CB agonist commercially available from Tocris) in assay buffer (50 mM Tris, 2.5 mM EDTA, 5 mM MgCl2, and 0.5 mg/mL fatty acid free BSA, pH 7.4). After 90 min incubation at 30° C., binding reaction was terminated by the addition of 300 μl/well of cold assay buffer followed by rapid vacuum filtration through a UniFilter-96 GF/C filter plates (pre-soaked in 1 mg/mL BSA for 2 hours). The bound activity was counted in a TopCount using Microscint-20. […]

[1] = system: spontaneous locomotor activity; experiment: Measurement of locomotor activity (open field, horizontal activity); assay type: in vivo; conditions: rat; for horizontal locomotor activity, agonist after rimonabant: 30 μmol/kg i.p., rimonabant 30 μmol/kg i.p. 15 min before
Procedure: Adverse effects may also be determined by the Measurement of Locomotor Activity. Spontaneous activity is assessed in an open-field environment (42 (length)×42 (base)×40 cm (height); Piper Plastics, Libertyville, Ill.) situated inside Versamax/Digiscan monitors, each equipped with infrared sensors (AccuScan Instruments, Inc., Columbus, Ohio) in a dimly illuminated test room. Following administration of test compounds or vehicle control, rats are individually placed into the test chambers and horizontal (locomotion) activity is recorded for 30 min. A reduction in horizontal motor activity for a test compound compared to the effect of vehicle is a measure of adverse effects; the greater the reduction in activity, the greater the adverse effect. Data is analyzed by ANOVA followed by Fisher's Protected Least significant difference (PLSD) analysis as a post hoc comparison (JMP statistic database; SAS Institute, Inc., Cary, N.C.). A p<0.05 was considered significant.
These effects also indicate that the reduction in locomotor activity by CB2 agonist B results from its residual activation of the CB1 receptor.
Using the locomotor activity assay, the effects of CB2 agonist A were evaluated after the administration of vehicle or the CB1 antagonist rimonabant. This effect was compared with the administration of vehicle after the administration of vehicle or the CB1 antagonist rimonabant. A first dose, consisting of CB1 antagonist rimonabant (30 μmol/kg i.p.) or a vehicle (5% DMSO/PEG), was administered 15 minutes before a second dose, consisting of administration of CB2 agonist A (30 μmol/kg i.p.) or vehicle. Locomotor testing was conducted 30 minutes after administration of the second dose, either CB2 agonist A or vehicle. […] CB2 agonist A administered after vehicle decreased horizontal locomotor activity by 91%.

human CB1 = target: T2, human CB1 (Homo sapiens, UniProt P21554); experiment: CB1 radioligand binding assay ([3H]CP-55,940 competition)
T2 construct: purchased Perkin Elmer; host or cells: HEK293 membranes
Procedure: as §1
For CB1 radioligand binding assay HEK293 human CB1 membranes were purchased from Perkin Elmer. Binding was initiated by the addition of membranes (8-12 μg per well) into wells (Scienceware 96-well DeepWell plate, VWR, West Chester, Pa.) containing [^3H]CP-55,940 (120 Ci/mmol, Perkin Elmer, Boston, Mass.) and a sufficient volume of assay buffer (50 mM Tris, 2.5 mM EDTA, 5 mM MgCl2, and 0.5 mg/mL fatty acid free BSA, pH 7.4) to bring the total volume to 250 μL. After incubation (30° C. for 90 minutes), binding was terminated by the addition of 300 μL per well of cold assay buffer and rapid vacuum filtration (FilterMate Cell Harvester, Perkin Elmer, Boston, Mass.) through a UniFilter-96 GF/C filter plate (Perkin Elmer, Boston, Mass.) (pre-soaked in 0.3% PEI at least 3 hours), followed by five washes with cold assay buffer. The bound activity was counted in the TopCount using Microscint-20 (both from Perkin Elmer, Boston, Mass.). Competition experiments were conducted with 1 nM [^3H]CP-55,940 and five concentrations (1 nM to 10 μM) of displacing ligands. The addition of 10 μM unlabeled CP-55,940 (Tocris, Ellisville, Mo.) was used to assess nonspecific binding.

T2 sequence (P21554 whole entry): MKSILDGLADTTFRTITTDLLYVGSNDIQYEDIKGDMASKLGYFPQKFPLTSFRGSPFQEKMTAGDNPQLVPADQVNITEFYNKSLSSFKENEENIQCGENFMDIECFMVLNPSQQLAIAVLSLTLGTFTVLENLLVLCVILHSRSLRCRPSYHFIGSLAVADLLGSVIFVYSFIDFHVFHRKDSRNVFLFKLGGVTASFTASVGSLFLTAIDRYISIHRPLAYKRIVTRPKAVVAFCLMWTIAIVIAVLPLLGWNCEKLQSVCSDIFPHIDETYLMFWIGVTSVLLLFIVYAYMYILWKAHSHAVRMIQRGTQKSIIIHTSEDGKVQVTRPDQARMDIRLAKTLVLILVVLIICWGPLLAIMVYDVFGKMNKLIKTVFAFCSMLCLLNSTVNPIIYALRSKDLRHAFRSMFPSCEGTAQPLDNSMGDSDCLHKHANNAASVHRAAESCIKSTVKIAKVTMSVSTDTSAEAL
T1 sequence (P34972 whole entry): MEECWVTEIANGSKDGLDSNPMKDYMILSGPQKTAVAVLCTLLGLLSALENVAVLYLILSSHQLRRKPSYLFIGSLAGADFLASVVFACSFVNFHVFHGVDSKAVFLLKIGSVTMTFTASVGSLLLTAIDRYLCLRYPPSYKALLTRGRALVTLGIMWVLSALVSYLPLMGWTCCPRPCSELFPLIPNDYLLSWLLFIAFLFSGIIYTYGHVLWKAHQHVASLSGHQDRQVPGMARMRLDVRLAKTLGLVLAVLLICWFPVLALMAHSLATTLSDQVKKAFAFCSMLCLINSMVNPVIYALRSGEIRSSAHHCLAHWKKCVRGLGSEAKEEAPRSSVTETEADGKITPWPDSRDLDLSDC

Compound | Ki (human CB2 receptors) [nM] | decrease of horizontal locomotor activity, agonist after vehicle ([1]; 30 μmol/kg i.p. after vehicle, tested 30 min after second dose) [%] | horizontal locomotor activity, agonist after rimonabant [1] | horizontal locomotor activity, agonist after rimonabant ([1]; listed as CB2 agonist A) | Ki (human CB1) [nM] | Ki (human CB2 receptors; HEK293 membranes expressing human CB2, 0.5 nM [3H]CP-55,940, read-out: Ki for CB2 receptors) [nM] | spontaneous locomotor activity, agonist alone ([1]; 30 and 45 μmol/kg i.p., tested 30 min after administration) | spontaneous locomotor activity, agonist after rimonabant ([1]; rimonabant 30 μmol/kg i.p. 15 min before CB2 agonist B) | Ki (human CB1; HEK293 human CB1 membranes, 1 nM [3H]CP-55,940, read-out: Ki for CB1 receptors) [nM]
CCCCn1cc(C(C)(C)C)s/c1=N\C(=O)c1cc(Cl)ccc1OC [compound A, (Z)—N-(5-tert-butyl-3-butylthiazol-2(3H)-ylidene)-5-chloro-2-methoxybenzamide] | 1.8 | 91 | much reduced side effects | able to block said decrease | 3670 | – | – | – | –
COCCn1c(C)c(C)s/c1=N\C(=O)C1C(C)(C)C1(C)C [compound B, (Z)—N-(3-(2-methoxyethyl)-4,5-dimethylthiazol-2(3H)-ylidene)-2,2,3,3-tetramethylcyclopropanecarboxamide] | – | – | – | – | – | 0.6 | significantly reduces spontaneous locomotor activity | reduction in locomotor activity was eliminated | 273
